Data on seven molecules can be found in patent publication US6713268B2, “Methods of identifying ocular hypotensive compounds having reduced hyperpigmentation” (Allergan, Inc., priority 2001, dated 2004).

“Also recorded” adds a separate entry of the source. Read-outs that look alike come from different tables or passages of the source.

The test system of data set [1] is S91 melanoma cells. Put plainly: Cell proliferation assay of S91 melanoma cells. The format is cell-based. How it is done:
(§1) Human dermal fibroblasts and S91 melanoma cells are cultured in low-glucose Dulbecco's Modified Eagle Medium (DMEM) containing 10% fetal calf serum (FCS) supplemented with 2 mM L-glutamine, 100 mg/l sodium pyruvate, 100 U/ml penicillin G, 100 […] and 250 ng/ml amphotericin B at 37° C. with 5% CO2. For tyrosinase and melanogenesis assays, the FCS concentration is reduced to 1% during the incubation period.
(§2) S91 cells are plated at 10^5 cells/well in 6-well plates and allowed to attach overnight. For transwell studies, cells from a human dermal fibroblast cell line are plated on the transwell insert at 10^3 cells/well and allowed to attach overnight. Melanoma cells are plated in an initial excess over fibroblasts; preferably at a ratio between about 1:30 and about 1:1000, more preferably at a ratio between about 1:50 and about 1:300; most preferably at a ratio of about 1:100. For primary cells, cells are cultured at a ratio of fibroblasts to melanocytes of about 1:2 to about 1:50; preferably about 1:5 to about 1:20, even more preferably about 1:10. The added test agents generally stimulate fibroblast proliferation; thus the use of the transwell permits separate enumeration of the melanocytes.
(§3) Test agents are added every other day of the assay period, with no exchange of medium.
For the cell proliferation assay, melanoma cells were washed with Hanks BSS, trypsinized and counted with a hemacytometer.

Data set [2] concerns the target T1, FP receptor (Homo sapiens, UniProt P43088). Nature of the data set: FLIPR calcium signaling in HEK-293 cells stably transfected with the human FP receptor. The format is cell-based. Set-up: expressed in transfected cells; host or cells: HEK-293. The note with it: HEK-293 human FP; for concentration at which FP receptor stimulation plateaus / concentration at which the FP receptor is stimulated (calcium signal): FLIPR, Fluo-4; for concentration at which the FP receptor is stimulated (calcium signal): onset of effect; for stimulation of the human FP receptor: calcium signal, about 10^−11 to 10^−8 M. How it is done:
Human embryonic kidney cells of line HEK-293 are stably transfected with an expression vector encoding the human FP receptor. Cells were cultured in low Glucose Dulbecco's Modified Eagles Medium containing 10% fetal calf serum, 2 mM L-glutamine, 100 mg/l sodium pyruvate, 100 U/ml penicillin G, […] streptomycin, 250 μg/ml G418 200 μg/ml hygromycin and 250 ng/ml amphotericin B at 37° C. with 5% CO2. Cells were seeded on poly-D-lysine-coated 96-well plates at 5000/well, and cultured overnight before the experiment. The cells are cultured in the presence, respectively, of: latanoprost-free acid, fluprostenol, Compound A, Compound B, and assayed using a FLIPR (fluorescence imaging plate reader) using the calcium activated fluorescent dye Fluo-4 as an indicator of free intracellular calcium. As stimulation of the FP receptor is known to cause in increase in free intracellular calcium release, this experiment is designed to determine when the test compounds are capable of stimulating the human FP receptor.

Data set [3] deals with S91 melanoma cells co-cultured with human dermal fibroblasts. Put plainly: DOPA oxidase (tyrosinase) activity in S91 melanoma cells in transwell co-culture with human dermal fibroblasts. It counts as cell-based. The note with it: increasing concentrations 10^−9 to 10^−5 M, 4 days. As to the method: as §1, §2, §3
(§4) For DOPA oxidase (tyrosinase) activity, the cells were incubated for four days in this case and the S91 cells were collected in a lysis buffer. The cell suspension was subjected to one freeze/thaw cycle (−80° C.) and vortexed to extract the cytosolic cell contents. After centrifugation for 30 minutes at 16,000×g at 4° C., aliquots of the supernatant were used in a Bradford assay to determine protein concentration or incubated with d-DOPA or l-DOPA as substrates. The optical density was measured for up to 6 hours at 490 nm.
Cloudman S91 melanoma cells (ATCC CCL-53.1) were cultured either in the presence or absence of human dermal fibroblast cells (ATCC CRL-2097) as described above. The added drugs were: arachidonic acid, anandamide, Compound C, Compound A, Compound D, Compound […], and Compound E.

Data set [4] deals with iris. The following applies: monkey, in vivo.
Description: (§5) The other eye is left untreated. A total of 8 animals is treated within each treatment group. At the end of the one year study period darkening of the treated eye is compared to a photograph of the same eye prior to treatment, and scored using the following scale:
Data set [5] deals with S91 cells. The note with it: native S91 cells; cited from earlier work.
Data set [6] concerns the target T1, FP receptor. Set-up: host or cells: S91 'Cloudman' melanoma cells, stably transfected. The following applies: cited from earlier work.
Data set [7] relates to S91 "Cloudman" melanoma cell line. The following applies: cited from earlier work.
Data set [8] has as its system S91 melanoma cells. Nature of the data set: DOPA oxidase (tyrosinase) activity in S91 melanoma cells cultured alone. The format is cell-based. How it is done:
as §1, §2, §3, §4
Cloudman S91 melanoma cells (ATCC CCL-53.1) were cultured either in the presence or absence of human dermal fibroblast cells (ATCC CRL-2097) as described above. […]

The subject of data set [9] is S91 melanoma cells. Put plainly: Melanin assay in S91 cells. It counts as cell-based. The note with it: S91 cells not in transwell cultures. How it is done:
as §1
as §2, with “The added test agents generally stimulate fibroblast proliferation; thus the use of the transwell permits separate enumeration of the melanocytes.” left out
For the melanin assay, cells were incubated for 5 days. […] After centrifugation for 30 min at 16,000×g at room temperature, the optical density of the supernatant was measured at 475 nm and compared to a standard curve obtained with synthetic melanin.

In data set [10] the test system is iris. Nature of the data set: One year topical monkey study, darkening of the iris. The note with it: once daily 35 microliter drop in one eye for one year; scale 0-3; untreated eyes baseline 1.
Description: as §5
The subject of data set [11] is iris. The following applies: patients; cited from earlier work.
Data set [12] has as its system melanocytes. The following applies: cited from earlier work.

T1 sequence (P43088 whole entry): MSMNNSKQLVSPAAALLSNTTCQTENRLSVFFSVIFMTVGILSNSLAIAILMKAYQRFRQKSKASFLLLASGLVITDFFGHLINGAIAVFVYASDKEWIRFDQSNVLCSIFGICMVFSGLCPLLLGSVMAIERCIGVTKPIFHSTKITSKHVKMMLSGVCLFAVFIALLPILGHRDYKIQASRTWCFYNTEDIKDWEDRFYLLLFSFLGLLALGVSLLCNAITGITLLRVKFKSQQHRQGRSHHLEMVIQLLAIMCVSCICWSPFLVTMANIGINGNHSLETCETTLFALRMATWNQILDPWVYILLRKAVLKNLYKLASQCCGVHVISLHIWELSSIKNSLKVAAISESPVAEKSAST

Turning to `O=C(O)CCC/C=C\C[C@@H]1[C@@H](/C=C/[C@@H](O)COc2cccc(C(F)(F)F)c2)[C@H](O)C[C@@H]1O` (racemic) [fluprostenol], in [1] (10^−9 to 10^−5 M, with or without fibroblast co-cultures), the S91 cell proliferation result was “No effect”. Further, in data set [2], the “concentration at which FP receptor stimulation plateaus” value is given as “about 10^−8 M”, the “concentration at which the FP receptor is stimulated (calcium signal)” value is “about 10^−11 M” and the “stimulation of the human FP receptor” value was “stimulate”. In [3], the “tyrosinase (DOPA oxidase) activity” value is given as “stimulate increased production of tyrosinase; also recorded: dose-dependent effect”.
`CCNC(=O)CCC/C=C\C[C@@H]1[C@@H](/C=C/[C@@H](O)CCc2ccccc2)[C@H](O)C[C@@H]1O` [Compound A]: the “darkening of the treated eye (iris), score” value in data set [4] is “about 1.1”. Further, the “tyrosinase (DOPA oxidase) activity” value in [3] is recorded as “no significant changes”.
For the molecule `CCCCC[C@H](O)/C=C/[C@@H]1[C@@H](C/C=C\CCCC(=O)O)[C@@H](O)C[C@H]1O` [PGF2α], the calcium signal result in data set [5] is listed as “failed to stimulate a calcium signal”; in data set [6] (FP receptor transfected S91 cells) it was “did not generate a calcium signal”. Moreover, the “DOPA oxidase (tyrosinase) activity and melanin formation compared with native S91 cells” value in data set [6] (FP receptor transfectants) was “indistinguishable”. In addition, the “melanogenesis / melanin production” value in [7] is given as “only at quite high concentrations”.
Consider `CCCCC/C=C\C/C=C\C/C=C\C/C=C\CCCC(=O)NCCO` [anandamide], for which, in data set [3], the “tyrosinase (DOPA oxidase) activity” value is given as “no significant increase”.
Turning to `CCCCC/C=C\C/C=C\C/C=C\C/C=C\CCCC(=O)O` [arachidonic acid], the “tyrosinase (DOPA oxidase) activity” value is reported as “smaller increase” in [8] (S91 without fibroblasts, increasing concentrations 10^−9 to 10^−5 M, 4 days) and “significant increase” in data set [3].
As for `CC(C)OC(=O)CCC/C=C\C[C@@H]1[C@@H](CC[C@@H](O)CCc2ccccc2)[C@H](O)C[C@@H]1O` [latanoprost], the S91 cell proliferation result in data set [1] (10^−5 M, with or without fibroblasts) is “decrease”. For the same molecule, the S91 cell proliferation result in data set [1] (10^−9 to 10^−6 M, with or without fibroblasts) is listed as “little effect”. For the same molecule, the melanin formation result in data set [9] (10^−5 M) was “enhancement”. In addition, the melanin formation result in data set [9] (up to 10^−6 M) is “no appreciable change”. The “darkening of the treated eye (iris), score” value in data set [10] came out at 2. For the same molecule, in data set [8] (S91 cells not in transwell cultures, 10^−5 M), the tyrosinase activity entry is given as “enhancement”. Further, the DOPA oxidase activity result in data set [8] (S91 cells not in transwell cultures, up to 10^−6 M) is “no appreciable change”. For the same molecule, the “human eyes with increase in brown pigment in the iris” value in data set [11] is reported as 5-15%. In addition, in data set [2], the “concentration at which FP receptor stimulation plateaus” value is given as “about 10^−8 M”, the “concentration at which the FP receptor is stimulated (calcium signal)” value is listed as “about 10^−11 M” and the “stimulation of the human FP receptor” value is given as “stimulate”. Besides, in data set [3], the “tyrosinase (DOPA oxidase) activity” value is given as “stimulate increased production of tyrosinase; also recorded: dose-dependent effect”.
In the case of melanocyte-stimulating hormone [MSH], the “melanogenesis / melanin production” value in data set [7] is reported as “able to simulate melanogenesis”. In data set [12], the activity of tyrosinase entry was “appears to stimulate”; the “expression or activity of TRP2 and TRP1” value is on record as “does not increase”.
